Reference: patent publication US11795454B2, “Targeted delivery system” (Cedars-Sinai Medical Center, priority 2009, dated 2023)

B1: HerDox: self-assembled nanoparticle of oligonucleotide duplex, doxorubicin and HerPBK10 (conjugate)
chain: LPPRLKEMKSQESAAGSKLVLRCETSSEYSSLRFKWFKNGNELNRKNKPQNIKIQKKPGKSELRINKASLADSGEYMCKVISKLGNDSASANITIVESNEIITGMPASTEGAYVSSESPIRISVSTEGANTSSSTSTSTTGTSHLVKCAEKEKTFCVNGGECFMVKDLSNPSRYLCKCQPGFTGARCTENVPMKVQNQEKAEELYMRRAAMYEEGPPPSYESVVSAAPVAAALGSPFDAPLDPPFVPPRYLRPTGGRNSIRYSELAPLFDTTRVYLVDNKSTDVASLNYQNDHSNFLTTVIQNNDYSPGEASTQTINLDDRSHWGGDLKTILHTNMPNVNEFMFTNKFKARVMVSRLPTKDNQVELKYEWVEFTLPEGNYSETMTIDLMNNAIVEHYLKVGRQNGVLESDIGVKFDTRNFRLGFDPVTGLVMPGVYTNEAFHPDIILLPGCGVDFTHSRLSNLLGIRKRQPFQEGFRITYDDLEGGNIPALLDVDAYQASLKDDTEQGGGGAGGSNSSGSGAEENSNAAAAAMQPVEDMNDHAIRGDTFATRAEEKRAEAEAAAEAAAPAAQPEVEKPQKKPVIKPLTEDSKKRSYNLISNDSTFTQYRSWYLAYNYGDPQTGIRSWTLLCTPDVTCGSEQVYWSLPDMMQDPVTFRSTRQISNFPVVGAELLPVHSKSFYNDQAVYSQLIRQFTSLTHVFNRFPENQILARPPAPTITTVSENVPALTDHGTLPLRNSIGGVQRVTITDARRRTCPYVYKALGIVSPRVLSSRTFKKKKKKKKKK

Tests used:
[1] = test system: U87 human glioma tumors
Experimental: FIG. 29A, Live mouse imaging of HerDox at indicated time points after injection. Arrows, Tumors. 29B-29C, Comparative biodistribution of HerDox and Dox in tissues harvested at 3 h post-injection. FIG. 29B, Imaging of biodistribution in harvested tissues. Pseudocolored FI corresponds to the color bar. Max, highest FI. FIG. 29C, Quantification of HerDox and Dox biodistribution, showing Dox FI/tissue. FIG. 29D. Comparative pharmacokinetics of HerDox and Dox in mice with tumors expressing differential HER2. Tissues were harvested from independently injected mice euthanized at indicated time points after injection and FI/tissue acquired using a small animal imaging system as described herein.
Heart rate and body temperature were monitored. […] Three beats were averaged for each measurement.
A customized macro-illumination and detection system was used for in vivo and tissue imaging. Dox was excited with the 488 nm line of a Coherent Innova ArKr laser. […] Fluorescence light was collected via a telecentric lens (Melles-Griot 59LGG925 base lens with a 59LGL428 attachment lens) that can operate at f/#2, has a magnification of 0.9, working distance of 257 mm and a depth of field of 81.5 mm. […] ImageJ was used to calculate average fluorescence intensities of the overall region of each selected tissue. […]

[2] = test system: MDA-MB-435 cells; assay: Uptake and intracellular trafficking, confocal fluorescence microscopy; format: cell-based, human; details: 0.5 uM final Dox concentration
Experimental: FIG. 28A. […] Dox fluorescence (magenta) is overlaid on DIC images. FIG. 28D. […] Relaxed (nicked) and supercoiled (sc) plasmid forms are indicated.
General procedures: MDA-MB-435 cells were plated ˜36 h before receiving HerDox or Dox (0.5 uM final Dox concentration) in fresh media containing the indicated constructs. For live cell assays, the cells (plated in chambers) were imaged at the indicated time points after treatment, under brightfield or DIC (where indicated) and fluorescence modes to identify the cell structure and Dox fluorescence, respectively. For fixed cell assays, the cells were plated on cover slips in 24-well plates (1×10^5 cells/well) ˜36 h before receiving HerDox or Dox in fresh complete media at 37° C., and separate samples fixed and processed for immunofluorescence against HerPBK10 following established procedures. A Leica SP2 laser-scanning confocal fluorescence microscope was used for fixed and live cell imaging.
The ability to visualize nuclear Dox fluorescence after cell exposure to free Dox has been used frequently to detect Dox uptake in cells, and has been attributed to interaction with histones. To determine whether these localization differences indicate that Dox remains attached to HerPBK10 during uptake, the inventors used a counterstain for HerPBK10.

[3] = test system: MDA-MB-435(HER2+,GFP−)/MDA-MB-231(HER2−,GFP+) cell culture; assay: Targeting in a mixed HER2+/HER2− cell culture; format: cell-based, human; details: 0.5 uM, day 2
Experimental: All treatments, N=3. FIG. 27A. Comparing cytotoxicity to HER2+ (MDAMB-435) and HER2− (MDA-MB-231) cells in separate cultures. Left, Relative survival (as % of untreated cells) on day 3 of treatment. Right, Micrograph of live cells after treatment. Control, mock (HBS) treatment. FIG. 27B, Receptor specificity of cytotoxicity. […] FIG. 27C, Toxicity to cells displaying differential HER2. Cytotoxicities from HerDox titrations were assessed on each cell line by metabolic assay and confirmed by crystal violet stain on day 3 of treatment. CD50 values (shown in log scale) were determined by non-linear regression analyses of HerDox killing curves using GraphPad Prism. The relative HER2 level of each cell line is shown next to each CD50 value. FIG. 27D, Targeting in a mixed MDA-MB-435(HER2+,GFP−)/MDA-MB-231(HER2−,GFP+) cell culture. Survival was determined by calculating the relative doubling time (DT) of experimental (exp) cells normalized by mock-treated (con) cells based on crystal violet stains (total cells) and GFP fluorescence (MDAMB-231 cells), and applying DTMDA-MB-435=DTTotal-DTMDA-MB-231 as previously described. Relative survival is shown for Day 2 of treatment. […] U251 cells were treated once with the indicated HerDox (and competitive inhibitor where indicated) or Dox doses and measured for cell survival at the indicated time points after treatment. * P<0.05 compared to Mock. […]

Molecule	delivery to U87 tumors higher compared to MDA-MB-435 tumors ([1]; mouse, in vivo, iv)	subcellular localization of Dox fluorescence [2]	cell growth in mixed cell culture [3]	delivery to U87 tumors lower compared to MDA-MB-435 tumor-bearing mice ([1]; i.v.) [%]
COc1cccc2c1C(=O)c1c(O)c3c(c(O)c1C2=O)C[C@@](O)(C(=O)CO)C[C@@H]3O[C@H]1C[C@H](N)[C@H](O)[C@H](C)O1.Cl [Dox, Doxorubicin-HCl, reference compound]	200-300 fluorescence units per tissue	detectable at the nuclear periphery immediately after administration	reduced efficacy	–
B1	–	nuclear accumulation by 60 min	substantially reduced HER2+ but not HER2− cell growth	~50
